Experiments:
[1] = system: Glomerella lagenarium (Colletotrichum lagenarium); test: Fungicidal activity against Glomerella lagenarium (Colletotrichum lagenarium) liquid culture / cucumber / preventative (anthracnose); type: cell-based; details: Colletotrichum orbiculare, liquid culture (PDB), growth inhibition measured photometrically 3-4 days after application, compared to untreated control
Procedure: Mycelia fragments or conidia suspensions of a fungus prepared either freshly from liquid cultures of the fungus or from cryogenic storage, are directly mixed into nutrient broth. DMSO solutions of the test compound (max. 10 mg/ml) are diluted with 0.025% Tween20 by a factor of 50 and 10 µl of this solution is pipetted into a microtiter plate (96-well format). The nutrient broth containing the fungal spores/mycelia fragments is then added to give an end concentration of the tested compound. The test plates are incubated in the dark at 24° C. and 96% relative humidity. The inhibition of fungal growth is determined photometrically after 2 to 7 days, depending on the pathosystem, and percent antifungal activity relative to the untreated check is calculated.
Conidia of the fungus from cryogenic storage are directly mixed into nutrient broth (PDB potato dextrose broth). After placing a (DMSO) solution of test compound into a microtiter plate (96-well format), the nutrient broth containing the fungal spores is added. The test plates are incubated at 24° C. and the inhibition of growth is measured photometrically 3-4 days after application.

[2] = system: Phakopsora pachyrhizi; test: Fungicidal activity against Phakopsora pachyrhizi / soybean / leaf disc preventative (Asian soybean rust); type: in vivo; details: foliar, soybean leaf disks, compared to untreated control
Procedure: (§1) Leaf disks or leaf segments of various plant species are cut from plants grown in a greenhouse. The cut leaf disks or segments are placed in multiwell plates (24-well format) onto water agar. The leaf disks are sprayed with a test solution before (preventative) or after (curative) inoculation. Compounds to be tested are prepared as DMSO solutions (max. 10 mg/ml) which are diluted to the appropriate concentration with 0.025% Tween20 just before spraying. The inoculated leaf disks or segments are incubated under defined conditions (temperature, relative humidity, light, etc.) according to the respective test system. A single evaluation of disease level is carried out 3 to 14 days after inoculation, depending on the pathosystem. Percent disease control relative to the untreated check leaf disks or segments is then calculated.
Soybean leaf disks are placed on water agar in multiwell plates (24-well format) and sprayed with the formulated test compound diluted in water. One day after application leaf discs are inoculated by spraying a spore suspension on the lower leaf surface. After an incubation period in a climate cabinet of 24-36 hours in darkness at 20° C. and 75% rh leaf disc are kept at 20° C. with 12 h light/day and 75% rh. The activity of a compound is assessed as percent disease control compared to untreated when an appropriate level of disease damage appears in untreated check leaf disks (12-14 days after application).

[3] = system: Puccinia recondita f. sp. tritici; test: Fungicidal activity against Puccinia recondita f. sp. tritici / wheat / leaf disc curative (brown rust); type: in vivo; details: foliar, 24 h, wheat leaf segments, curative (applied 1 day after inoculation), compared to untreated control
Procedure: as §1
Wheat leaf segments cv. Kanzler are placed on agar in multiwell plates (24-well format). The leaf segments are inoculated with a spore suspension of the fungus. Plates are stored in darkness at 19° C. and 75% rh. The formulated test compound diluted in water is applied 1 day after inoculation. The leaf segments are incubated at 19° C. and 75% rh under a light regime of 12 h light/12 h darkness in a climate cabinet and the activity of a compound is assessed as percent disease control compared to untreated when an appropriate level of disease damage appears in untreated check leaf segments (6-8 days after application).

[4] = system: Puccinia recondita f. sp. tritici; test: Fungicidal activity against Puccinia recondita f. sp. tritici / wheat / leaf disc preventative (brown rust); type: in vivo; details: foliar, wheat leaf segments, preventative (inoculated 1 day after application), compared to untreated control
Procedure: as §1
Wheat leaf segments cv. Kanzler are placed on agar in multiwell plates (24-well format) and sprayed with the formulated test compound diluted in water. The leaf disks are inoculated with a spore suspension of the fungus 1 day after application. The inoculated leaf segments are incubated at 19° C. and 75% rh under a light regime of 12 h light/12 h darkness in a climate cabinet and the activity of a compound is assessed as percent disease control compared to untreated when an appropriate level of disease damage appears in untreated check leaf segments (7-9 days after application).

Row | SMILES | melting point [°C] | inhibition of growth at 20 ppm [1] [%] | pest or weed control at 200 ppm [2] [%] | pest or weed control at 200 ppm [3] [%] | pest or weed control at 200 ppm [4] [%]
1 | Cc1ccn(Cc2ccc(-c3noc(C(F)(F)F)n3)cc2)c(=O)c1 [Compound C-5, 4-methyl-1-[[4-[5-(trifluoromethyl)-1,2,4-oxadiazol-3-yl]phenyl]methyl]pyridin-2-one] | 156 to 158 | ≥ 80 | ≥ 80 | ≥ 80 | ≥ 80
2 | Cn1nnn(Cc2ccc(-c3noc(C(F)(F)F)n3)cc2)c1=O [Compound B-6, 1-methyl-4-[[4-[5-(trifluoromethyl)-1,2,4-oxadiazol-3-yl]phenyl]methyl]tetrazol-5-one] | 104 to 106 | ≥ 80 | ≥ 80 | ≥ 80 | ≥ 80
3 | Cc1nn(Cc2ccc(-c3noc(C(F)(F)F)n3)cc2)c(=O)o1 [Compound B-3, 5-methyl-3-[[4-[5-(trifluoromethyl)-1,2,4-oxadiazol-3-yl]phenyl]methyl]-1,3,4-oxadiazol-2-one] | 133.8 to 136 | ≥ 80 | ≥ 80 | ≥ 80 | ≥ 80
4 | O=S1(=O)C=CCN1Cc1ccc(-c2noc(C(F)(F)F)n2)cc1 [Compound A-1, 2-[[4-[5-(trifluoromethyl)-1,2,4-oxadiazol-3-yl]phenyl]methyl]-3H-isothiazole 1,1-dioxide] |  | ≥ 80 | ≥ 80 | ≥ 80 | ≥ 80
5 | N#Cc1cccn(Cc2ccc(-c3noc(C(F)(F)F)n3)cc2)c1=O [Compound C-7, 2-oxo-1-[[4-[5-(trifluoromethyly)-1,2,4-oxadiazol-3-yl]phenyl]methyl]pyridine-3-carbonitrile] | 178 to 180 | ≥ 80 | ≥ 80 | ≥ 80 | ≥ 80
6 | O=c1ccc(F)cn1Cc1ccc(-c2noc(C(F)(F)F)n2)cc1 [Compound C-6, 5-fluoro-1-[[4-[5-(trifluoromethyl)-1,2,4-oxadiazol-3-yl]phenyl]methyl]pyridin-2-one] | 125 to 126 | ≥ 80 | ≥ 80 | ≥ 80 | ≥ 80
7 | O=c1sc(-c2ccccc2)nn1Cc1ccc(-c2noc(C(F)(F)F)n2)cc1 [Compound B-2, 5-phenyl-3-[[4-[5-(trifluoromethyl)-1,2,4-oxadiazol-3-yl]phenyl]methyl]-1,3,4-thiadiazol-2-one] | 111.1 to 114 | ≥ 80 |  |  | 
8 | Cc1cccc(=O)n1Cc1cc(F)c(-c2noc(C(F)(F)F)n2)c(F)c1 [Compound C-17, 1-[[3,5-difluoro-4-[5-(trifluoromethyl)-1,2,4-oxadiazol-3-yl]phenyl]methyl]-6-methyl-pyridin-2-one] |  | ≥ 80 |  | ≥ 80 | ≥ 80
9 | O=c1ccn(-c2ccc(Cl)cc2)n1Cc1ccc(-c2noc(C(F)(F)F)n2)cc1 [Compound A-4, 1-(4-chlorophenyl)-2-[[4-[5-(trifluoromethyl)-1,2,4-oxadiazol-3-yl]phenyl]methyl]pyrazol-3-one] |  |  | ≥ 80 |  | ≥ 80
10 | COc1c(-c2c(C)cc(C)cc2C)c(=O)n(Cc2ccc(-c3noc(C(F)(F)F)n3)cc2)n1C [Compound A-3, 5-methoxy-1-methyl-2-[[4-[5-(trifluoromethyl)-1,2,4-oxadiazol-3-yl]phenyl]methyl]-4-(2,4,6-trimethylphenyl)pyrazol-3-one] |  | ≥ 80 | ≥ 80 |  | 
11 | CC(=O)n1ccc(=O)n1Cc1ccc(-c2noc(C(F)(F)F)n2)cc1 [Compound A-2, 1-acetyl-2-[[4-[5-(trifluoromethyl)-1,2,4-oxadiazol-3-yl]phenyl]methyl]pyrazol-3-one] |  | ≥ 80 | ≥ 80 | ≥ 80 | ≥ 80
12 | Cc1cccc(=O)n1C(C)c1ccc(-c2noc(C(F)(F)F)n2)cc1 (stereo not drawn) [Compound C-16, 6-methyl-1-[1-[4-[5-(trifluoromethyl)-1,2,4-oxadiazol-3-yl]phenyl]ethyl]pyridin-2-one] |  | ≥ 80 |  | ≥ 80 | ≥ 80
13 | Cn1nnn(Cc2ccc(-c3noc(C(F)(F)F)n3)c(F)c2)c1=O [Compound B-5, 1-[[3-fluoro-4-[5-(trifluoromethyl)-1,2,4-oxadiazol-3-yl]phenyl]methyl]-4-methyl-tetrazol-5-one] |  | ≥ 80 | ≥ 80 | ≥ 80 | ≥ 80
14 | CC1=CC(C)C(=O)N1Cc1ccc(-c2noc(C(F)(F)F)n2)cc1 (stereo not drawn) [Compound B-7, 3,5-dimethyl-1-[[4-[5-(trifluoromethyl)-1,2,4-oxadiazol-3-yl]phenyl]methyl]-3H-pyrrol-2-one] |  | ≥ 80 | ≥ 80 |  | ≥ 80
15 | Cc1cccc(=O)n1Cc1cc(F)c(-c2noc(C(F)(F)F)n2)cc1F [Compound C-15, 1-[[2,5-difiuoro-4-[5-(trifluoromethyl)-1,2,4-oxadiazol-3-yl]phenyl]methyl]-6-methyl-pyridin-2-one] |  | ≥ 80 | ≥ 80 | ≥ 80 | ≥ 80
16 | CC(c1ccc(-c2noc(C(F)(F)F)n2)cc1)n1nnn(C)c1=O (stereo not drawn) [Compound B-1, 1-methyl-4-[1-[4-[5-(trifluoromethyl)-1,2,4-oxadiazol-3-yl]phenyl]ethyl]tetrazol-5-one] |  | ≥ 80 | ≥ 80 | ≥ 80 | ≥ 80
17 | Cc1cc(C)n(Cc2ccc(-c3noc(C(F)(F)F)n3)cc2)c(=O)c1 [Compound C-3, 4,6-dimethyl-1-[[4-[5-(trifluoromethyl)-1,2,4-oxadiazol-3-yl]phenyl]methyl]pyridin-2-one] |  |  |  | ≥ 80 | 
18 | Cc1ccn(CCc2ccc(-c3noc(C(F)(F)F)n3)cc2)c(=O)c1 [Compound C-18, 4-methyl-1-[2-[4-[5-(trifluoromethyl)-1,2,4-oxadiazol-3-yl]phenyl]ethyl]pyridin-2-one] | 146 to 148 | ≥ 80 |  | ≥ 80 | ≥ 80
19 | Cn1nc(Cl)n(-c2ccc(-c3noc(C(F)(F)F)n3)cc2)c1=O [Compound F-1, 5-chloro-2-methyl-4-[4-[5-(trifluoromethyl)-1,2,4-oxadiazol-3-yl]phenyl]-1,2,4-triazol-3-one] | 161 to 167 | ≥ 80 |  |  | ≥ 80
20 | O=C1OCC(c2ccc(Cl)cc2Cl)=NN1Cc1ccc(-c2noc(C(F)(F)F)n2)cc1 [Compound E-1, 5-(2,4-dichlorophenyl)-3-[[4-[5-(trifluoromethyl)-1,2,4-oxadiazol-3-yl]phenyl]methyl]-6H-1,3,4-oxadiazin-2-one] | 139.5 to 140 |  |  |  | 

Reference: US11447481B2, “Microbiocidal oxadiazole derivatives” (SYNGENTA PARTICIPATIONS AG, priority 2017, dated 2022)
